The nature of series [1]: Kinetic solubility by nephelometry. The series is classed as physicochemical. The settings on record: kinetic solubility, 1% DMSO, 30 min; for sol6.5: pH 6.5 phosphate buffer; for sol2.0: 0.01 M HCl (approx. pH 2.0).
Series [2] in a line: In vitro metabolic stability in human liver microsomes. The settings on record: for h CLint: 37 °C, 0.4 mg/mL protein, NADPH. The series is classed as in vitro ADME. (In general: Microsomes from liver hold many membrane-bound enzymes, among them those of drug oxidation.)
Series [3] is described as follows: In vitro metabolic stability in mouse liver microsomes. The series is classed as in vitro ADME. The settings on record: for m CLint: 37 °C, 0.4 mg/mL protein, NADPH.
In the next series the test system is hepatocyte (HC-04). The series is described as follows: Cytotoxicity screen. The series is classed as cell-based, human. The settings on record: HC-04, 24 h, Alamar blue; data not shown. (Alamar Blue is a resazurin reagent that responds to reducing activity.)
The test system of series [4] is foreskin fibroblast (HFF). Description: Cytotoxicity screen. It counts as cell-based, human. The settings on record: 24 h, Alamar blue, data not shown.
A further series concerns kidney (HEK 293T). Description: Cytotoxicity screen. It counts as cell-based, human. The settings on record: 24 h, Alamar blue, data not shown.
A further series concerns osteosarcoma (U-2 OS). Description: Cytotoxicity screen. The series is classed as cell-based, human. The settings on record: 24 h, Alamar blue, data not shown.

From publication PMC7182039 (Journal of medicinal chemistry, 2020) come the findings set out here.

Consider `CC(C)(Oc1ccc([C@H]2CC[C@]3(CC2)OOC2(O3)C3CC4CC(C3)CC2C4)cc1)C(=O)O` (stereo partly shown) [Compound 11], for which, in series [1], the sol6.5 was 3.1 to 6.3 µg/mL. Also, in series [2], the “h CLint” value is recorded as <7/7 μL/(min mg) protein. The “m CLint” value in series [3] is <7/7 μL/(min mg) protein.

Regarding `O=C(O)CNC(=O)COc1ccc([C@H]2CC[C@]3(CC2)OOC2(O3)C3CC4CC(C3)CC2C4)cc1` (stereo partly drawn) [Compound 14, cis-Adamantane-2-spiro-3′−8′-[4-[2-[(carboxymethyl)amino]-2-oxoethoxy]phenyl]-1′,2′,4′-trioxaspiro[4.5]decane], the “cytotoxicity: concentration without inhibition of the cell line” value (in the series with hepatocyte (HC-04); in series [4]; in the series with kidney (HEK 293T); in the series on osteosarcoma (U-2 OS)) was over 50 µM throughout. In series [1], this compound yielded a sol2.0 of 12.5 to 25 µg/mL. For the same compound, in series [2], the “conversion to 2 in human liver microsomes” value is “converted to 2 in human”. Further, the “h CLint” value in series [2] is reported as <7/CND^a,b μL/(min mg) protein.

For the compound `CS(=O)(=O)O.O=C(O)COc1ccc([C@H]2CC[C@]3(CC2)OOC2(O3)C3CC4CC2CC(C3)N4)cc1` (stereo partly drawn) [Compound 24, cis-6-Azaadamantane-2-spiro-3′−8 ′-[4-(carboxymethoxy)-phenyl]-1′,2′,4′-trioxaspiro[4.5]decane mesylate], in series [1], the sol2.0 was 3.1 to 6.3 µg/mL and the sol6.5 was under 1.6 µg/mL. Moreover, the “h CLint” value in series [2] is reported as 35 μL/(min mg) protein. Moreover, in series [3], the “m CLint” value is on record as 27 μL/(min mg) protein.

Turning to `O=C(O)COc1ccc([C@H]2CC[C@]3(CC2)OOC2(O3)C3CC4CC2CC(C3)C4=O)cc1` (stereo partly drawn) [Compound 20, cis-6-Oxoadamantane-2-spiro-3′−8′-[4-(carboxymethoxy)-phenyl]-1′,2′,4′-trioxaspiro[4.5]decane], the sol6.5 in series [1] was 50 to 100 µg/mL.

Take `CS(=O)(=O)O.CS(=O)(=O)O.O=C(O)CNCc1ccc([C@H]2CC[C@]3(CC2)OOC2(O3)C3CC4CC2CC(C3)N4)cc1` (stereo partly drawn) [Compound 25, cis-6-Azaadamantane-2-spiro-3′−8′-[4-[[(carboxymethyl)-amino]methyl]phenyl]-1′,2′,4′-trioxaspiro[4.5]decane mesylate]: in series [1], the sol2.0 was over 100 µg/mL and the sol6.5 was in the range of 50 to 100 µg/mL. Further, the “h CLint” value in series [2] was <7/<7 μL/(min mg) protein. In addition, the “m CLint” value in series [3] was <7/<7 μL/(min mg) protein.

With `O=C(O)COc1ccc([C@H]2CC[C@]3(CC2)OOC2(O3)C3CC4CC2CC(C3)C4O)cc1` (stereo partly drawn) [Compound 21, cis-6-Hydroxyadamantane-2-spiro-3′−8′-[4-(carboxymethoxy)-phenyl]-1′,2′,4′-trioxaspiro[4.5]decane], the sol6.5 in series [1] is 25 to 50 µg/mL. Besides, in series [2], the “h CLint” value was <7/<7 μL/(min mg) protein. Also, the “m CLint” value in series [3] was <7/<7 μL/(min mg) protein.

In turn, `O=C(O)COc1c(Cl)cc([C@H]2CC[C@]3(CC2)OOC2(O3)C3CC4CC(C3)CC2C4)cc1Cl` (stereo partly drawn) [Compound 8, cis-Adamantane-2-spiro-3′ −8′-[3,5-dichloro-4-(carboxymethoxy)phenyl]-1′,2′,4′-trioxaspiro[4.5]decan] gave a sol6.5 in series [1] of 3.1 to 6.3 µg/mL.

In series [1], `CC(=O)NC1C2CC3CC1CC(C2)C31OO[C@]2(CC[C@@H](c3ccc(OCC(=O)O)cc3)CC2)O1` (stereo partly drawn) [Compound 22, cis-6-Acetamidoadamantane-2-spiro-3′−8′-[4-(carboxymethoxy)phenyl]-1′,2′,4′-trioxaspiro[4.5]decane] came in with a sol2.0 of 3.1 to 6.3 µg/mL and a sol6.5 of 12.5 to 25 µg/mL. Also, the “h CLint” value in series [2] is 10 μL/(min mg) protein. Moreover, the “m CLint” value in series [3] is recorded as < 7 μL/(min mg) protein.

With `CS(=O)(=O)O.O=C(O)CNCc1ccc([C@H]2CC[C@]3(CC2)OOC2(O3)C3CC4CC(C3)CC2C4)cc1` (stereo partly drawn) [Compound 17, cis-Adamantane-2-spiro-3′−8′-[4-[[(carboxymethyi)amino]-methyl]phenyi]-1′,2′,4′-trioxaspiro[4.5]decane mesyiate], the “cytotoxicity: concentration without inhibition of the cell line” value (in the series with hepatocyte (HC-04); in series [4]; in the series on kidney (HEK 293T); in the series with osteosarcoma (U-2 OS)) was over 50 µM throughout. Further, in series [1], the sol2.0 was under 12.5 µg/mL. Moreover, in series [1], the sol6.5 is under 6.3 µg/mL. The “h CLint” value in series [2] is < 7 μL/(min mg) protein. Besides, in series [3], the “m CLint” value is reported as 10 μL/(min mg) protein.

Regarding `O=C(O)COc1ccc([C@H]2CC[C@]3(CC2)OOC2(O3)C3CC4CC2CC(C3)C4(F)F)cc1` (stereo partly drawn) [Compound 19, cis-6,6-Difluoroadamantane-2-spiro-3′−8′-[4-(carboxymethoxy)-phenyl]-1′,2′,4′ -trioxaspiro[4.5]decane], the sol6.5 in series [1] lay within 12.5 to 25 µg/mL. Moreover, the “h CLint” value in series [2] was 23 μL/(min mg) protein. In addition, in series [3], the “m CLint” value is given as 130 μL/(min mg) protein.

For `O=C(O)COc1ccc([C@H]2CC[C@]3(CC2)OOC2(O3)C3CC4CC(C3)CC2C4)cc1C(=O)O` (stereo partly drawn) [Compound 6, cis-Adamantane-2-spiro-3′−8′-[3-carboxy-4-(carboxymethoxy)-phenyl]-1′,2′,4′-trioxaspiro[4.5]decane], the “h CLint” value in series [2] is on record as < 7 μL/(min mg) protein. Besides, the “m CLint” value in series [3] was 8 μL/(min mg) protein.

Regarding `O=C(O)COc1ccc([C@H]2CC[C@]3(CC2)OOC2(O3)C3CC4CC(C3)CC2C4)cc1Cl` (stereo partly drawn) [Compound 7, cis-Adamantane-2-spiro-3 ′−8 ′-[3-chloro-4-(carboxymethoxy)-phenyl]-1′,2′,4′-trioxaspiro[4.5]decan], the “cytotoxicity: concentration without inhibition of the cell line” value (with hepatocyte (HC-04); in series [4]; with kidney (HEK 293T); in the series on osteosarcoma (U-2 OS)) was over 50 µM throughout. Besides, the sol6.5 in series [1] lay in the range of 3.1 to 6.3 µg/mL. In addition, in series [2], the “h CLint” value is listed as < 7 μL/(min mg) protein. The “m CLint” value in series [3] was 8 μL/(min mg) protein.

`CS(=O)(=O)NC(=O)COc1ccc([C@H]2CC[C@]3(CC2)OOC2(O3)C3CC4CC(C3)CC2C4)cc1` (stereo partly drawn) [Compound 13, cis-Adamantane-2-spiro-3′−8′-[4-[2-[methylsulfonamino]-2-oxoethoxy]phenyl]-1′,2′,4′-trioxaspiro[4.5]decane] gave a sol6.5 in series [1] of 6.3 to 12.5 µg/mL. In addition, the “h CLint” value in series [2] is recorded as < 7 μL/(min mg) protein. In addition, in series [3], the “m CLint” value is given as 12 μL/(min mg) protein.

In series [1], `O=C([O-])C1CCN(CCOc2ccc([C@H]3CC[C@]4(CC3)OOC3(O4)C4CC5CC(C4)CC3C5)cc2)CC1.[Na+]` (stereo partly shown) [Compound 15] registered a sol2.0 of 3.1 to 6.3 µg/mL and a sol6.5 of under 1.6 µg/mL. The “h CLint” value in series [2] is < 7 μL/(min mg) protein. Besides, in series [3], the “m CLint” value is recorded as 9 μL/(min mg) protein.

As for `O=C(O)c1cccc([C@H]2CC[C@]3(CC2)OOC2(O3)C3CC4CC(C3)CC2C4)c1` (stereo partly shown) [Compound 4], in series [1], the sol2.0 is given as <1.6/<1.6 μg/mL and the sol6.5 is <1.6/<1.6 μg/mL. Besides, the “h CLint” value in series [2] is given as 12 μL/(min mg) protein. Further, in series [3], the “m CLint” value was 30 μL/(min mg) protein.

In series [1], `CS(=O)(=O)O.O=C(O)C1CN(Cc2ccc([C@H]3CC[C@]4(CC3)OOC3(O4)C4CC5CC(C4)CC3C5)cc2)C1` (stereo partly drawn) [Compound 18, cis-Adamantane-2-spiro-3′−8′-[4-((3-(carbonyi)azetidin-1-yl)-methyi)phenyi]-1′,2′,4′-trioxaspiro[4.5]decane mesyiate] showed a sol2.0 of 6.3 to 12.5 µg/mL and a sol6.5 of under 1.6 µg/mL. The “h CLint” value in series [2] was 7 μL/(min mg) protein. Besides, the “m CLint” value in series [3] is on record as 10 μL/(min mg) protein.

Turning to `O=C(O)CCCCOc1ccc([C@H]2CC[C@]3(CC2)OOC2(O3)C3CC4CC(C3)CC2C4)cc1` (stereo partly drawn) [Compound 10, cis-Adamantane-2-spiro-3′−8′-[4-(carboxybutoxy)phenyl]-1′,2′,4′-trioxaspiro[4.5]decan], in series [1], the sol2.0 is given as <1.6/<1.6 μg/mL and the sol6.5 was <1.6/<1.6 μg/mL. In addition, in series [2], the “h CLint” value was < 7 μL/(min mg) protein. Moreover, the “m CLint” value in series [3] is reported as 13 μL/(min mg) protein.

In series [1], `CS(=O)(=O)O.NC1C2CC3CC1CC(C2)C31OO[C@]2(CC[C@@H](c3ccc(OCC(=O)O)cc3)CC2)O1` (stereo partly drawn) [Compound 23, cis-6-Aminoadamantane-2-spiro-3′−8′-[4-(carboxymethoxy)-phenyl]-1′,2′,4′-trioxaspiro[4.5]decane mesylate] displayed a sol2.0 of 6.3 to 12.5 µg/mL and a sol6.5 of under 1.6 µg/mL. Further, the “h CLint” value in series [2] was 13 μL/(min mg) protein. Besides, the “m CLint” value in series [3] is recorded as 8 μL/(min mg) protein.

`CCOC(=O)COc1ccc([C@H]2CC[C@]3(CC2)OOC2(O3)C3CC4CC(C3)CC2C4)cc1` (stereo partly shown) [Compound 12]: in series [2], the “conversion to 2 in human liver microsomes” value is given as “rapidly converted to 2”. Further, the “conversion to 2 in mouse liver microsomes” value in series [3] is on record as “rapidly converted to 2”.

For `O=C(O)c1cc([C@H]2CC[C@]3(CC2)OOC2(O3)C3CC4CC(C3)CC2C4)ccc1O` (stereo partly shown) [Compound 5, 5-(Dispiro[adamantane-2,3′ -[1,2,4]trioxolane-5′,1″-cyclohexan]-4″-yl)-2-hydroxybenzoic acid], the “h CLint” value in series [2] is reported as 108 μL/(min mg) protein. Besides, the “m CLint” value in series [3] was 20 μL/(min mg) protein.

With `O=C(O)CCCOc1ccc([C@H]2CC[C@]3(CC2)OOC2(O3)C3CC4CC(C3)CC2C4)cc1` (stereo partly drawn) [Compound 9, cis-Adamantane-2-spiro-3′−8′-[4-(carboxypropoxy)-phenyl]-1′,2′,4′-trioxaspiro[4.5]decane], the “h CLint” value in series [2] is recorded as < 7 μL/(min mg) protein. Besides, the “m CLint” value in series [3] is given as 8 μL/(min mg) protein.
